Experiments:
[1] = biological target: T1, human MCHR1 (Homo sapiens, UniProt Q99705); assay: Human MCH receptor 1 (MCHR1) competitive binding assay, [125I]-MCH(4-19), CHO cell membrane fraction; conditions: test compound 0.1 μM, human MCHR1-expressing CHO cell membrane, 25° C., 1 hr, read-out: Binding inhibition rate (0.1 μM)
T1 construct: expressed in transfected cells; host or cells: CHO cell clone 57 (membrane fraction)
Procedure: Determination of Human MCH Receptor 1 (MCHR1) Competitive Inhibitory Activity of Test Compound Using Binding Assay
Using human MCHR1(=SLC-1 receptor)-expressing CHO cell clone 57 and rat MCHR1-expressing CHO cell clone 44 described in WO01/82925, MCHR1-expressing CHO cellular membrane fractions were prepared by the following method. In phosphate buffered saline (pH 7.4) supplemented with 5 mM EDTA (ethylenediaminetetraacetic acid) were respectively suspended human and rat MCHR1-expressing CHO cells (1×10^8 cells) and centrifuged. Homogenate buffer (10 mL, 10 mM NaHCO3, 5 mM EDTA, pH 7.5, 0.5 mM PMSF (phenylmethylsulfonyl fluoride), 20 mg/L leupeptin, 4 mg/L E-64, 1 mg/L pepstatin A) was added to the pellets of the cells and, using Polytron Homogenizer, the mixture was homogenated. The supernatant obtained after centrifugation at 400×g for 10 min was further centrifuged at 100,000×g for 1 hr to give precipitate of the membrane fraction. The precipitate were suspended in 2 mL of assay buffer [20 mM Tris-HCl (pH 7.5), 5 mM EDTA, 0.5 mM PMSF, 20 mg/L leupeptin, 4 mg/L E-64, 1 mg/L pepstatin A]. The membrane fractions were suspended in assay buffer to a protein concentration of 2 mg/mL, and after dispensing, preserved at −80° C. and used upon thawing each time when in use.
The MCHR1 ligand binding inhibitory activity of the test compound was determined as follows. An MCHR1-expressing CHO cellular membrane fraction (175 μL) diluted with an assay buffer was dispensed to a 96 well polypropylene plate (3363, Corning). DMSO solution (2 μL), 100 μm cold MCH(1-19) diluted with DMSO solution (2 μL), or a test compound solution diluted with DMSO solution to various concentrations (2 μL) was added, and lastly, [^125I]-MCH(4-19) diluted with assay buffer (25 μL) was added to each well. The reaction mixture was reacted at 25° C. for 1 hr with stirring, and the reaction mixture was filtered by suction using a glass filter plate (GF/C, PerkinElmer). The filter was washed 3 times with a wash solution (300 μL, 50 mM Tris-HCl buffer, pH 7.5). The glass filter plate was dried, a liquid scintillator was added at 25 μL/well, and the residual radioactivity was measured by TopCount (PerkinElmer). The binding inhibition rate of the test compound was calculated by the following formula. Binding inhibition (%)=(radioactivity upon addition of test compound and hot MCH−radioactivity upon addition of cold MCH and hot MCH solution)/(radioactivity upon addition of DMSO solution and hot MCH−radioactivity upon addition of cold MCH and hot MCH solution)×100

T1 sequence (Q99705 whole entry): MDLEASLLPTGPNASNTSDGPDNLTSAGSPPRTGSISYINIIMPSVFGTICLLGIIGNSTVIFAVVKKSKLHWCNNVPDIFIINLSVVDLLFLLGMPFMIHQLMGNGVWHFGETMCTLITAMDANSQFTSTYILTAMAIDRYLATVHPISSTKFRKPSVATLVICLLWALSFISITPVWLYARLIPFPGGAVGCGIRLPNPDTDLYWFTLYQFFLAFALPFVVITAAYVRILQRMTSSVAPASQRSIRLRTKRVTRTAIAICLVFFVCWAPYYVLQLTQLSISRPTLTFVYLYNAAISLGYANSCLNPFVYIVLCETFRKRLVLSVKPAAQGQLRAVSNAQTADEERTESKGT

inhibition at 0.1 µM [1] [%]	melting point [°C]	SMILES
98		Cn1c(CN[C@H]2CC[C@](C)(O)CC2)cc2cc(NC(=O)c3ccc(OCC4CC4)cc3)ccc21 [Example 12, 4-(cyclopropylmethoxy)-N-(2-{[(trans-4-hydroxy-4-methylcyclohexyl)amino]methyl}-1-methyl-1H-indol-5-yl)benzamide]
98	170	Cc1c(NC(=O)c2ccc(OCC3CC3)cc2)ccc2cc(CNCC(C)(C)O)[nH]c12 [Example 63, 4-(cyclopropylmethoxy)-N-(2-{[(2-hydroxy-2-methylpropyl)amino]methyl}-7-methyl-1H-indol-6-yl)benzamide]
91	180	Cc1c(NC(=O)c2ccc(OCC3CC3)cc2)ccc2cc(CNCC(C)(C)O)n(C)c12 [Example 78, 4-(cyclopropylmethoxy)-N-(2-{[(2-hydroxy-2-methylpropyl)amino]methyl}-1,7-dimethyl-1H-indol-6-yl)benzamide]
	167	Cc1c(NC(=O)c2ccc(OCC3CC3)cc2)ccc2cc(CN[C@H]3CC[C@](C)(O)CC3)n(C)c12 [Example 79, 4-(cyclopropylmethoxy)-N-(2-{[(trans-4-hydroxy-4-methylcyclohexyl)amino]methyl}-1,7-dimethyl-1H-indol-6-yl)benzamide]
	199	Cc1c(NC(=O)c2ccc(OCC3CC3)cc2)ccc2cc(CNCC(C)(C)C)[nH]c12 [Example 65, 4-(cyclopropylmethoxy)-N-(2-{[(2,2-dimethylpropyl)amino]methyl}-7-methyl-1H-indol-6-yl)benzamide]
	169	Cn1c(CNCC(C)(C)O)cc2cc(NC(=O)c3ccc(OCC4CCOC4)cc3)ccc21 (centres unmarked) [Example 25, N-(2-{[(2-hydroxy-2-methylpropyl)amino]methyl}-1-methyl-1H-indol-5-yl)-4-(tetrahydrofuran-3-ylmethoxy)benzamide]
	153 to 154	Cn1c(CNCC2CCOCC2)cc2cc(NC(=O)c3ccc(OCC4CCOC4)cc3)ccc21 (centres unmarked) [Example 23, N-(1-methyl-2-{[(tetrahydro-2H-pyran-4-ylmethyl)amino]methyl}-1H-indol-5-yl)-4-(tetrahydrofuran-3-ylmethoxy)benzamide]
92	179	Cc1c(NC(=O)c2ccc(OC[C@@H]3CCCO3)cc2)ccc2c1cc(CNCC(C)(C)C)n2C [Example 51, N-(2-{[(2,2-dimethylpropyl)amino]methyl}-1,4-dimethyl-1H-indol-5-yl)-4-[(2S)-tetrahydrofuran-2-ylmethoxy]benzamide]
	160 to 162	Cc1c(NC(=O)c2ccc(OC[C@@H]3CCCO3)cc2)ccc2c1cc(CNCC(C)(C)O)n2C [Example 52, N-(2-{[(2-hydroxy-2-methylpropyl)amino]methyl}-1,4-dimethyl-1H-indol-5-yl)-4-[(2S)-tetrahydrofuran-2-ylmethoxy]benzamide]
	166 to 167	CC1(CNCc2cc3cc(NC(=O)c4ccc(OCC5CC5)cc4)ccc3[nH]2)COC1 [Example 1, 4-(cyclopropylmethoxy)-N-[2-({[(3-methyloxetan-3-yl)methyl]amino}methyl)-1H-indol-5-yl]benzamide]
	168 to 169	CC(C)CNCc1cc2cc(NC(=O)c3ccc(C#CC4(O)CCC4)cc3)ccc2n1C [Example 29, 4-[(1-hydroxycyclobutyl)ethynyl]-N-(2-{[(2-methylpropyl)amino]methyl}-1-methyl-1H-indol-5-yl)benzamide]
	160 to 161	Cn1c(CNCC(C)(C)C)cc2cc(NC(=O)c3ccc(C#CC4(O)CCC4)cc3)ccc21 [Example 30, N-(2-{[(2,2-dimethylpropyl)amino]methyl}-1-methyl-1H-indol-5-yl)-4-[(1-hydroxycyclobutyl)ethynyl]benzamide]
	165 to 166	Cc1c(CNCC(C)(C)C)n(C)c2ccc(NC(=O)c3ccc(OC[C@@H]4CCCO4)cc3)cc12 [Example 37, N-(2-{[(2,2-dimethylpropyl)amino]methyl}-1,3-dimethyl-1H-indol-5-yl)-4-[(2S)-tetrahydrofuran-2-ylmethoxy]benzamide]
	168 to 169	Cn1c(CNCC(C)(C)S(C)(=O)=O)cc2cc(NC(=O)c3ccc(OCC4CC4)cc3)ccc21 [Example 7, 4-(cyclopropylmethoxy)-N-[1-methyl-2-({[2-methyl-2-(methylsulfonyl)propyl]amino}methyl)-1H-indol-5-yl]benzamide]

Further lines, the molecule ahead of its results:

SMILES	inhibition at 0.1 µM [1] [%]	melting point [°C]
Cc1c(CNCC(C)(C)C)[nH]c2c(F)c(NC(=O)c3ccc(OC[C@@H]4CCCO4)cc3)ccc12 [Example 103, N-(2-{[(2,2-dimethylpropyl)amino]methyl}-7-fluoro-3-methyl-1H-indol-6-yl)-4-[(2S)-tetrahydrofuran-2-ylmethoxy]benzamide]	100	159 to 160
Cc1c(NC(=O)c2ccc(OCC3CC3)cc2)ccc2cc(CN[C@H]3CC[C@](C)(O)CC3)[nH]c12 [Example 67, 4-(cyclopropylmethoxy)-N-(2-{[(trans-4-hydroxy-4-methylcyclohexyl)amino]methyl}-7-methyl-1H-indol-6-yl)benzamide]	101	91 to 103
Cc1c(NC(=O)c2ccc(OC[C@@H]3CCCO3)cc2)ccc2cc(CNCC3CCOCC3)[nH]c12 [Example 70, N-(7-methyl-2-{[(tetrahydro-2H-pyran-4-ylmethyl)amino]methyl}-1H-indol-6-yl)-4-[(2S)-tetrahydrofuran-2-ylmethoxy]benzamide]	95	161 to 162
Cc1c(NC(=O)c2ccc(OC[C@@H]3CCCO3)cc2)ccc2cc(CN3CCC(C)(O)CC3)n(C)c12 [Example 87, N-{2-[(4-hydroxy-4-methylpiperidin-1-yl)methyl]-1,7-dimethyl-1H-indol-6-yl}-4-[(2S)-tetrahydrofuran-2-ylmethoxy]benzamide]		140 to 141
Cc1c(CNCC2CCOCC2)n(C)c2c(C)c(NC(=O)c3ccc(OC[C@@H]4CCCO4)cc3)ccc12 [Example 107, 4-[(2S)-tetrahydrofuran-2-ylmethoxy]-N-(1,3,7-trimethyl-2-{[(tetrahydro-2H-pyran-4-ylmethyl)amino]methyl}-1H-indol-6-yl)benzamide]		173 to 174
Cc1c(NC(=O)c2ccc(OC[C@@H]3CCCO3)cc2F)ccc2cc(CN[C@H]3CC[C@](C)(O)CC3)[nH]c12 [Example 77, 2-fluoro-N-(2-{[(trans-4-hydroxy-4-methylcyclohexyl)amino]methyl}-7-methyl-1H-indol-6-yl)-4-[(2S)-tetrahydrofuran-2-ylmethoxy]benzamide]		152 to 153
Cc1c(CNCC(C)C)n(C)c2c(C)c(NC(=O)c3ccc(OC[C@@H]4CCCO4)cc3)ccc12 [Example 106, N-(2-{[(2-methylpropyl)amino]methyl}-1,3,7-trimethyl-1H-indol-6-yl)-4-[(2S)-tetrahydrofuran-2-ylmethoxy]benzamide]		171 to 172
Cc1c(NC(=O)c2ccc(OCC3CC3)cc2)ccc2cc(CNCC3CCOCC3)[nH]c12 [Example 66, 4-(cyclopropylmethoxy)-N-(7-methyl-2-{[(tetrahydro-2H-pyran-4-ylmethyl)amino]methyl}-1H-indol-6-yl)benzamide]		167 to 168
Cc1c(NC(=O)c2ccc(OC[C@@H]3CCCO3)cc2)ccc2cc(CN3CCCC3)[nH]c12 [Example 74, N-[7-methyl-2-(pyrrolidin-1-ylmethyl)-1H-indol-6-yl]-4-[(2S)-tetrahydrofuran-2-ylmethoxy]benzamide]	91	172 to 173
Cc1c(CNCC(C)(C)O)[nH]c2c(C)c(NC(=O)c3ccc(OC[C@@H]4CCCO4)cc3F)ccc12 [Example 101, 2-fluoro-N-(2-{[(2-hydroxy-2-methylpropyl)amino]methyl}-3,7-dimethyl-1H-indol-6-yl)-4-[(2S)-tetrahydrofuran-2-ylmethoxy]benzamide]		151 to 152
Cc1c(NC(=O)c2ccc(OC[C@@H]3CCCO3)cc2F)ccc2cc(CNCC(C)(C)O)n(C)c12 [Example 89, 2-fluoro-N-(2-{[(2-hydroxy-2-methylpropyl)amino]methyl}-1,7-dimethyl-1H-indol-6-yl)-4-[(2S)-tetrahydrofuran-2-ylmethoxy]benzamide]		132 to 133
